Measured values taken from patent publication US7902195B2, “Pyridine [3,4-b] pyrazinones” (Pharmacia & Upjohn Company LLC, priority 2006, dated 2011).
pIC50: −log10 of the molar value.

Each compound was assayed against T1, PDE5 enzyme isolated from human platelets (Homo sapiens, UniProt O76074) (assay: Alternative human platelet PDE5 enzyme inhibition scintillation proximity assay (Method 2)). Settings: cGMP substrate 50 nM, 60 minutes at room temperature.
T1 construct: The PDE5 enzyme for use in the assay can be obtained from human platelets; from tissue; host or cells: human platelets
Type: biochemical
Description: The IC50 of a test compound can be measured using an in vitro assay using PDE5 enzyme isolated from human platelets. The IC50 is the concentration of test compound required to inhibit the hydrolysis of cGMP to GMP by the PDE5 enzyme by 50% relative to the activity of uninhibited controls. The PDE5 enzyme for use in the assay can be obtained from human platelets by appropriate modification of the method of Thompson, W J et al.; Biochemistry 18(23), 5228-5237, 1979, as described by Ballard S A et al.; J. Urology 159(6), 2164-2171, 1998. The PDE5 enzyme so obtained can be used to catalyze the hydrolysis of [^3H]cGMP (Amersham Biosciences) to 5′ nucleotide [^3H]GMP. The [^3H]GMP binds to yttrium silicate SPA beads (Amersham Biosciences) and is detected by scintillation counting. More specifically, the effect of a test compound at different concentrations can be evaluated in the assay by contacting the compound with a fixed amount of PDE5 enzyme in the presence of substrate (cGMP […] in a 3:1 ratio unlabelled to [^3H]-labeled). Scintillation counting can be used as described above to determine relative PDE5 enzyme activity. The inhibition of PDE5 enzyme activity is then calculated relative to total PDE5 enzyme activity of uninhibited controls.
Method 2: Alternative Human Platelet PDE5 Enzyme Inhibition Scintillation Proximity Assay
PDE5 IC50 Assay: 96-Well Microtiter Plate Format
Buffer A: 20 mM Tris-HCl, 5 mM MgCl2, pH 7.4
Buffer B: 2 mg/ml BSA in Buffer A (enzyme buffer)
cGMP substrate: Final concentration of 50 nM in assay
The amount of ^3H-labeled substrate added depends upon the specific activity of [^3H]cGMP, and it is diluted in Buffer A.
PDE enzyme: Prepared in Buffer B. The dilution factor is determined by enzyme activity.
SPA beads: 4 mg/ml suspension prepared in dH2O.
Stocks of standard and test compound are prepared at 2 mM in 100% DMSO. The test compound is serially diluted in a dilution plate using an 8-point ⅕ log dilution format such that the starting concentration in the assay is 2 μM for an initial IC50 screen. 27 μl of Buffer A are added to the wells of the assay plates. From the dilution plate, 3 μl of diluted compound is delivered in duplicate or 3 μl of 100% DMSO (for positive and negative controls) are added. 30 μl of enzyme are added. For the negative control wells, Buffer B is substituted in place of the enzyme. 30 μl of labeled substrate are added to all wells.
After incubating for 60 minutes at room temperature, the reaction is stopped with the addition of 30 μl of the yttrium silicate beads. These beads are dense and require constant agitation while being added to the plate. The plates are sealed and shaken on a plate shaker for fifteen minutes to allow the beads to bind the GMP product.
After allowing the beads to settle for 30 minutes, plates are read on a NXT TopCount scintillation counter and the data are analyzed as follows. Percent inhibition values are calculated using the means of the 0% and 100% controls on each plate. The estimates of the 4-parameters of the logistic, sigmoid dose-response model are then calculated using the well-level percent inhibition value for the compound. The formula for the four-parameter logistic model may be expressed as Y=((a−d)/(1+(X/c)^b))+d, where Y is the response, X is the concentration, a is the lower asymptote (minimum response), d is the upper asymptote (maximum response), c is the model IC50 (in the same units as X), and b is the slope (as described in De Lean, A., P. J. Munson, and D. Rodbard (“Simultaneous analysis of families of sigmoidal curves: application to bioassay, radioligand assay, and physiological dose-response curves.” Am. J. Physiol. 235(2): E97-E102, 1978). These estimates are used to calculate the concentration that corresponds to 50% inhibition.
Compounds were tested in accordance with Method 2 above yielding the IC50 values described in Table C.

pIC50	Structure (SMILES)
8.77	CCCOCCn1c(=O)c(N2CCN(CCO)CC2)nc2cnc(-c3ccc(OC)c(C)c3)cc21 [Example 35, 3-(4-(2-hydroxyethyl)piperazin-1-yl)-7-(4-methoxy-3-methylphenyl)-1-(2-propoxyethyl)pyrido[3,4-b]pyrazin-2(1H)-one]
9.38	CCCOCCn1c(=O)c(N2CCC(O)C2)nc2cnc(-c3ccc(OC)nc3)cc21 (centres unmarked) [Example 42, 3-(3-hydroxypyrrolidin-1-yl)-7-(6-methoxypyridin-3-yl)-1-(2-Propoxyethyl)pyrido[3,4-b]pyrazin-2(1H)-one]
7.37	CCCOCCn1c(=O)c(N2CCN(CCO)CC2)nc2cnc(-c3ccccc3F)cc21 [Example 38, 7-(2-fluorophenyl)-3-(4-(2-hydroxyethyl)piperazin-1-yl)-1-(2-propoxyethyl)pyrido[3,4-b]pyrazin-2(1H)-one]
8.87	CCCOCCn1c(=O)c(N2CCN(CCO)CC2)nc2cnc(-c3ccc(Cl)cc3)cc21 [Example 13, 7-(4-chlorophenyl)-3-(4-(2-hydroxyethyl)piperazin-1-yl)-1-(2-propoxyethyl)pyrido[3,4-b]pyrazin-2(1H)-one]
8.11	CCCOCCn1c(=O)c(N2CCN(CCO)CC2)nc2cnc(-c3ccc(OC)cc3)cc21 [Example 17, 3-(4-(2-hydroxyethyl)piperazin-1-yl)-7-(4-methoxyphenyl)-1-(2-propoxyethyl)pyrido[3,4-b]pyrazin-2(1H)-one]
9.71	CCCOCCn1c(=O)c(N2CC(C)N(CCCO)C(C)C2)nc2cnc(-c3ccc(OC)nc3)cc21 (centres unmarked) [Example 10, 3-[4-(3-hydroxypropyl)-3,5-dimethylpiperazin-1-yl]-7-(6-methoxypyridin-3-yl)-1-(2-propoxyethyl)pyrido[3,4-b]pyrazin-2(1H)-one]
9.53	CCCOCCn1c(=O)c(N2CCCC(C(N)=O)C2)nc2cnc(-c3ccc(OC)nc3)cc21 (centres unmarked) [Example 40, 1-(1,2-dihydro-7-(6-methoxypyridin-3-yl)-2-oxo-1-(2-propoxyethyl)pyrido[3,4-b]pyrazin-3-yl)piperidine-3-carboxamide]
7.37	CCCOCCn1c(=O)c(N2CCN(CCO)CC2)nc2cnc(-c3ccc(C(C)=O)s3)cc21 [Example 28, 7-(5-acetylthiophen-2-yl)-3-(4-(2-hydroxyethyl)piperazin-1-yl)-1-(2-propoxyethyl)pyrido[3,4-b]pyrazin-2(1H)-one]
8.62	CCCOCCn1c(=O)c(N2C[C@H]3C[C@@H]2CN3)nc2cnc(-c3ccc(OC)nc3)cc21 [Example 2, 3-[(1R,4R)-2,5-diazabicyclo[2.2.1]hept-2-yl]-7-(6-methoxypyridin-3-yl)-1-(2-propoxyethyl)pyrido[3,4-b]pyrazin-2(1H)-one]
10.08	CCCOCCn1c(=O)c(N2CCN(CC(=O)OC(C)(C)C)CC2)nc2cnc(-c3ccc(OC)nc3)cc21 [Example 7, tert-butyl {4-[7-(6-methoxypyridin-3-yl)-2-oxo-1-(2-propoxyethyl)-1,2-dihydropyrido[3,4-b]pyrazin-3-yl]piperazin-1-yl}acetate]
6.51	CCCOCCn1c(=O)c(N2CCN(CCO)CC2)nc2cnc(-c3cccc(CO)c3)cc21 [Example 30, 3-(4-(2-hydroxyethyl)piperazin-1-yl)-7-(3-(hydroxymethyl)phenyl)-1-(2-propoxyethyl)pyrido[3,4-b]pyrazin-2(1H)-one]
8.48	CCCOCCn1c(=O)c(N2CCN(CCO)CC2)nc2cnc(-c3cccc(Cl)c3)cc21 [Example 16, 7-(3-chlorophenyl)-3-(4-(2-hydroxyethyl)piperazin-1-yl)-1-(2-propoxyethyl)pyrido[3,4-b]pyrazin-2(1H)-one]
8.51	CCCOCCn1c(=O)c(N2CCN(CCO)CC2)nc2cnc(-c3cccc(OC)c3)cc21 [Example 29, 3-(4-(2-hydroxyethyl)piperazin-1-yl)-7-(3-methoxyphenyl)-1-(2-propoxyethyl)pyrido[3,4-b]pyrazin-2(1H)-one]
9.75	CCCOCCn1c(=O)c(N2CCN(CCCO)CC2)nc2cnc(-c3ccc(OC)nc3)cc21 [Example 11, 3-[4-(3-hydroxypropyl)piperazin-1-yl]-7-(6-methoxypyridin-3-yl)-1-(2-propoxyethyl)pyrido[3,4-b]pyrazin-2(1H)-one]
8.80	CCCOCCn1c(=O)c(N2CCN(CCO)CC2)nc2cnc(-c3cccc(OC)c3F)cc21 [Example 20, 7-(2-fluoro-3-methoxyphenyl)-3-(4-(2-hydroxyethyl)piperazin-1-yl)-1-(2-propoxyethyl)pyrido[3,4-b]pyrazin-2(1H)-one]
7.87	CCCOCCn1c(=O)c(N2CCN(CCO)CC2)nc2cnc(-c3ccc(OC)c(F)c3)cc21 [Example 33, 7-(3-fluoro-4-methoxyphenyl)-3-(4-(2-hydroxyethyl)piperazin-1-yl)-1-(2-propoxyethyl)pyrido[3,4-b]pyrazin-2(1H)-one]
8.97	CCCOCCn1c(=O)c(N2CCCN(CCCO)CC2)nc2cnc(-c3ccc(OC)nc3)cc21 [Example 48, 3-(4-(3-hydroxypropyl)-1,4-diazepan-1-yl)-7-(6-methoxypyridin-3-yl)-1-(2-propoxyethyl)pyrido[3,4-b]pyrazin-2(1H)-one]
6.99	CCCOCCn1c(=O)c(N2CCN(CCO)CC2)nc2cnc(-c3ccc(S(=O)(=O)CC)cc3)cc21 [Example 19, 7-(4-(ethylsulfonyl)phenyl)-3-(4-(2-hydroxyethyl)piperazin-1-yl)-1-(2-propoxyethyl)pyrido[3,4-b]pyrazin-2(1H)-one]
9.61	CCCOCCn1c(=O)c(N2CCN(CCO)[C@@H](C)C2)nc2cnc(-c3ccc(OC)nc3)cc21 [Example 9, 3-[(3S)-4-(2-hydroxyethyl)-3-methylpiperazin-1-yl]-7-(6-methoxypyridin-3-yl)-1-(2-propoxyethyl)pyrido[3,4-b]pyrazin-2(1H)-one]
8.48	CCCOCCn1c(=O)c(N2CCNCC2)nc2cnc(-c3ccc(OC)nc3)cc21 [Example 1, 7-(6-methoxypyridin-3-yl)-3-(piperazin-1-yl)-1-(2-propoxyethyl)pyrido[3,4-b]pyrazin-2(1H)-one]
6.08	CCCOCCn1c(=O)c(N2CCN(CCO)CC2)nc2cnc(-c3ccc(O)cc3)cc21 [Example 14, 3-(4-(2-hydroxyethyl)piperazin-1-yl)-7-(4-hydroxyphenyl)-1-(2-propoxyethyl)pyrido[3,4-b]pyrazin-2(1H)-one]
7.33	CCCOCCn1c(=O)c(N2CCN(CCO)CC2)nc2cnc(-c3cccc(F)c3F)cc21 [Example 26, 7-(2,3-difluorophenyl)-3-(4-(2-hydroxyethyl)piperazin-1-yl)-1-(2-propoxyethyl)pyrido[3,4-b]pyrazin-2(1H)-one]
7.34	CCCOCCn1c(=O)c(N2CCN(CCO)CC2)nc2cnc(-c3cccnc3)cc21 [Example 31, 3-(4-(2-hydroxyethyl)piperazin-1-yl)-1-(2-propoxyethyl)-7-(pyridin-3-yl)pyrido[3,4-b]pyrazin-2(1H)-one]
